From US12673065B2, “Anti-inflammatory composition and method of treatment” (KUWAIT UNIVERSITY, priority 2020, dated 2026)

How the values were obtained:
[1] = test system: HDM-challenged BALB/c mice; assay: HDM-induced total and differential cell influx in BAL fluid; type: in vivo; details: synergy study, OBE 30 mg/kg i.p., dexamethasone 0.5 mg/kg i.p., alone or combined, mean±SEM
Method: (§1) Male BALB/c mice (6-8 weeks old, average weight 25 g) were used in this study. All studies involving animals were in accordance with the ARRIVE guidelines for reporting experiments involving animals. All experimental protocols were approved by the Animal Welfare and Use of Laboratory Animals Committee in the Health Sciences Center, Kuwait University and were carried out in accordance with the EU Directive 2010/63/EU for animal experiments and the National Institutes of Health guide for the care and use of Laboratory animals (NIH Publications No. 8023, revised 1978). Animals were maintained under temperature-controlled conditions with an artificial 12-hour light/dark cycle and were allowed standard chow and water ad libitum.
(§2) Seven treatment groups (A-G, 9-15 animals per group) were established to determine whether OBE, if given prophylactically, inhibits the HDM-induced asthma phenotype. […]
(§3) Twenty-four hours after the last intranasal challenge, half of the animals were sacrificed with an overdose of halothane, bronchoalveolar lavage (BAL) was performed to obtain BAL fluid, and then the lungs were excised in preparation for histology, Western Blot (WB) and immunofluorescence (IF) studies. […] In the other half of the animals, airway responsiveness was measured.

[2] = test system: HDM-challenged BALB/c mice; assay: Lung histology scoring (H&E and PAS) after HDM challenge; type: in vivo; details: synergy study, OBE 30 mg/kg, dexamethasone 0.5 mg/kg, alone or combined, score 1-5
Method: as §1, §2, §3

pERK1/2 (Thr202/Tyr204) = assay: Immunofluorescence of lung sections, phosphorylation of ERK1/2; type: in vivo, mice; details: synergy study; OBE 30 mg/kg, dexamethasone 0.5 mg/kg, alone or combined; HDM 319.0±10.4
Method: Lung tissues were processed as described above. Immunofluorescence was performed as previously described in the literature. In short, lung sections were incubated in a blocking solution (5% bovine serum albumin (BSA)+0.3% Triton X-100 in PBS) for 1 hour, and were subsequently incubated overnight at 4° C. with primary antibodies [p-EGFR (Tyr1068) (Rabbit; Cat. No. 3777S), pAKT (Ser 473) (Rabbit; Cat. No. 9271L) and pERK1/2 (Thr202/Tyr204) (Rabbit; Cat. No. 9101L) (1:25-1:800 dilution) or only 1% BSA (for negative control); Cell Signaling, USA], diluted in 1% blocking solution. Twenty-four hours later, the sections were washed and incubated with secondary antibody conjugated to Alexa Fluor 555 (Goat anti rabbit SFX kit; Life Technologies, USA, 1:400 dilution) for 2 hours at room temperature in the dark. Following several washes in PBS, the sections were stained with 4′,6-diamidino-2-phenylindole and mounted. Images were then captured on a ZEISS LSM 700 confocal microscope, and fluorescence intensity was estimated in defined fields using an Image J software package. […]
All numerical values were expressed as means±SEM. […] For the histopathological assessment, a semi-quantitative 5-level lung pathology score was used to grade the degree of inflammation in each microscopic field at 20×. All data were initially assessed for normality. […]

[3] = test system: HDM-challenged BALB/c mice; assay: HDM-induced airway hyperresponsiveness to methacholine (lung resistance); type: in vivo; details: dexamethasone 3 mg/kg; 50 mg/ml of methacholine; HDM/vehicle 7.9±0.5
Method: Airway responsiveness was measured 24 h after the last HDM or PBS challenge, using a separate set of animals using the Buxco FinePointe series RC site (DSI, Wilmington, NC) as described previously in the literature. Briefly, mice were anesthetized with an intraperitoneal injection of ketamine/xylazine ([…]) cocktail and tracheotomized with a steel 18-gauge cannula. Mice were then mechanically ventilated at a rate of 150 breaths/minute and a tidal volume of 0.15 ml using a computerized small animal ventilator (FinePointe site). Following a 5 min period of stabilization and administration of PBS, airway resistance was measured by exposing mice to aerosolized methacholine (6.25-50.0 mg/ml, 5 μl per delivery) delivered by an aerogen nebulizer and reported as total lung resistance (RL) (cm H2O per ml/sec).
All numerical values were expressed as means±SEM. Total cell counts represent the number of cells/ml of BAL fluid. Differential cell counts represent the absolute number of each cell type/ml of BAL fluid. Absolute RL values were computed and were used as an index of airway responsiveness. For the histopathological assessment, a semi-quantitative 5-level lung pathology score was used to grade the degree of inflammation in each microscopic field at 20×. All data were initially assessed for normality. […]

## C[C@@H]1C[C@H]2[C@@H]3CCC4=CC(=O)C=C[C@]4(C)[C@@]3(F)[C@@H](O)C[C@]2(C)[C@@]1(O)C(=O)CO [dexamethasone]
[1]; HDM/vehicle 3.7±0.3
  eosinophils in BAL fluid: 1.3±0.1 ×10^5
[1]; HDM/vehicle 6.4±0.5
  total cell count in BAL fluid: 4.3±0.2 ×10^5
[2]; HDM 4.2±0.2
  mucous intensity score: 3.0±0.2
[2]; HDM 4.5±0.2
  cellular infiltration score: 3.1±0.3
pERK1/2 (Thr202/Tyr204)
  HDM-induced phosphorylation of ERK1/2 (pERK1/2 levels): 264.8±4.9%
[3]
  lung resistance (RL): 5.2±0.8 cm H2O per ml/sec
